Entries after “also recorded” stand apart in the source; their conditions may differ.
Legend:
sleep in rats = conditions: reported in the literature, ref not given; cited from earlier work
[1] = tested on: mouse vas deferens from NOP(+/+) mice; experiment: Electrically stimulated mouse vas deferens bioassay, NOP(+/+) tissues; conditions: for potency (pEC50) for inhibition of electrically induced contractions / maximal inhibition of electrically induced contractions: mVD from CD-1 NOP(+/+) mice, 5 experiments; for potency (pEC50) for inhibition of electrically induced contractions: 33 °C, mean (CL95%); for maximal inhibition of electrically induced contractions: mean ± sem
Experimental: (§1) This study was approved by the Animal Welfare Body of the University of Ferrara and by the Italian Ministry of Health (authorization number CBCC2.N.BXI). Experiments were performed on an isolated mouse vas deferens. All experiments were conducted with mice bred and housed in the University of Ferrara’s animal facility under specific pathogen-free conditions (SPF). All mice were housed in cages with individual ventilation, with a constant temperature of 21 °C, 60% humidity, and a 12 h light/dark cycle. Food and water were provided ad libitum. CD-1 NOP(+/+) and CD-1 NOP(−/−) male mice, aged 9 to 12 months, were used. Animals were sacrificed on the day of the experiment with CO2 overdose. Bioassay experiments were performed as previously described. The tissues were suspended in 5 mL organ bath containing Krebs solution (NaCl 118.5 […]). The Krebs solution was oxygenated with 95% O2 and 5% CO2 and the temperature set at 33 °C with a resting tension of 0.3 g applied to the tissues. Tissues were stimulated through two platinum electrodes with a supramaximal rectangular pulse of 1 ms duration, 0.05 Hz frequency, and 80 V of amplitude. The electrically evoked contractions were measured isotonically by means of Basile strain gauge transducers (Basile, IT) and a recorder with a Power Lab 8 instrument (ADInstruments, CO, U.S.). Following an equilibration period of approximately 60 min, the contractions induced by electrical field stimulation were stable. At this time, cumulative concentration response curves were carried out.
(§2) Concentration-response curves to agonists were analyzed by a four-parameter logistic nonlinear regression model: Effect = baseline + (E max – baseline)/(1 + 10^((logEC50–log[ligand])slope)). […] Experimental data were expressed as mean ± sem of at least 5 experiments. Potency values were expressed as the mean and CL95%. In vitro E max values were analyzed by one-way ANOVA, while in vivo latency data were evaluated by one-way ANOVA followed by Dunnett’s post hoc test. The proportion of mice losing the righting reflex was compared by Fisher’s exact test performed on raw data. GraphPad Prism 10.0 software was used for all of the analyses. The terminology employed is consistent with the International Union of Basic and Clinical Pharmacology (IUPHAR) recommendations. ,

[2] = tested on: mouse vas deferens from NOP(−/−) mice; experiment: Electrically stimulated mouse vas deferens bioassay, NOP(−/−) tissues; conditions: mVD from CD-1 NOP(−/−) mice; 5 experiments
Experimental: as §1
Concentration-response curves to agonists were analyzed by a four-parameter logistic nonlinear regression model: Effect = baseline + (E max – baseline)/(1 + 10^((logEC50–log[ligand])slope)). […] Experimental data were expressed as mean ± sem of at least 5 experiments. Potency values were expressed as the mean and CL95%. In vitro E max values were analyzed by one-way ANOVA, while in vivo latency data were evaluated by one-way ANOVA followed by Dunnett’s post hoc test. […]

[3] = tested on: loss of the righting reflex (RR) in mice; experiment: Loss of the righting reflex assay in mice; type: in vivo, mouse; conditions: 10 nmol, icv
Experimental: All of the experimental procedures adopted in the in vivo studies comply with the European Directive 2010/63/EU on protecting animals used for scientific purposes and Italian Legislative Decree no. 26 of March 4, 2014. These experiments were approved by the Animal Welfare Body of the University of Ferrara and by the Ministry of Health (authorization number 677/2024-PR). In vivo studies have been reported following ARRIVE guidelines. All experiments were conducted with mice bred and housed in the University of Ferrara’s animal facility under specific pathogen-free conditions. All mice were housed in cages with individual ventilation, with a constant temperature of 21 °C, 60% humidity, and a 12 h light/dark cycle. Food and water were provided ad libitum. CD-1 male and female mice, aged 2 to 4 months, were used. Details about the generation of NOP(−/−) and NOP(+/+) mice have been published previously; , these mice have been backcrossed on CD-1 strain in our laboratories. NOP(+/+) and NOP(−/−) littermates were obtained by mating with NOP(±) mice. All mice were genotyped using the polymerase chain reaction previously described. All mice were used only once. The RR assay was performed as previously described. […] Diazepam 15 mg/kg was injected ip. When the animals lost RR, they were placed in a plastic cage, and the time was recorded by an expert observer, blind to drug treatments and/or genotype. Animals were judged to have regained the RR response when they could correct themselves three times within 30 s. Sleeping time is defined as the amount of time between the loss and regaining of the RR; it was rounded to the nearest minute.
as §2

## O=C1NCN(c2ccccc2)C12CCN([C@@H]1CC[C@H]3CCCc4cccc1c43)CC2 [Ro 64-6198]
Sleep in rats
  induced sleep at EEG recordings: 3 to 5 h

## O=C(O)c1nc2ccccc2n([C@@H]2C[C@H]3CCC[C@@H](C2)N3C2C[C@H]3CCC[C@@H](C2)C3)c1=O (some centres unmarked) [Sunobinop]
Sleep in rats
  induced sleep at EEG recordings: 3 to 5 h

## [D-Pen^2,D-Pen^5]enkephalin [DPDPE]
[1]
  potency (pEC50) for inhibition of electrically induced contractions: 7.72 (7.45–7.99)
  maximal inhibition of electrically induced contractions: 86 ± 6%
[2]
  effect in mVD tissues from NOP(−/−) mice (in words): superimposable

## nociceptin/orphanin FQ [N/OFQ]
[1]
  potency (pEC50) for inhibition of electrically induced contractions: 7.59 (7.41–7.77)
  maximal inhibition of electrically induced contractions: 71 ± 4%
[1]; onset and reversibility upon washout
  kinetics of action in mVD (in words): fully and rapidly reversible upon washout
[2]
  effect in mVD tissues from NOP(−/−) mice (in words): completely inactive
[3]; CD-1 mice, N = 8–10 per group
  mice that lost the RR, 10 nmol: fewer than half
[3]; mice that lost the RR
  duration of action on RR (in words): short-lasting action; also recorded: few minutes

Source: PMC12621184, “Synthesis and Pharmacological Characterization of Nociceptin/Orphanin FQ Dimeric Ligands” (Journal of Medicinal Chemistry, 2025)
